Experimental data taken from US5658885A, “Amidino and guanidino substituted boronic acid inhibitors of trypsin-like enzymes” (The DuPont Merck Pharmaceutical Company, priority 1994, dated 1997).

Key:
[1] = biological target: T1, human thrombin (Homo sapiens, UniProt P00734); assay: Inhibition of thrombin hydrolysis of chromogenic substrate S2238 (Ki); format: biochemical; conditions: S2238, pH 7.5
T1 construct: 0.2-0.5 nM human thrombin or human factor Xa; purchased Enzyme Research Laboratories, South Bend, Ind
Method in brief: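 Purified human enzymes hydrolysing pNA substrates (thrombin S2238, factor Xa S2222, factor VIIa S2288), followed by absorbance at 405 nm over 30 min with velocities taken at 25-30 min. Thrombin and Xa were run in 0.10 M phosphate pH 7.5, 0.20 M NaCl, 0.5% PEG 8000. VIIa was run in 0.05 M Tris pH 7.6, 0.10 M NaCl, 4 mM CaCl2, 0.1% BSA, with Ki calculated from inhibited versus control velocities using substrate concentration and Km.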

[2] = biological target: T2, human factor Xa (Homo sapiens, UniProt P00742); assay: Inhibition of Factor Xa hydrolysis of chromogenic substrate S2222 (Ki); format: biochemical; conditions: S2222, pH 7.5
T2 construct: 0.2-0.5 nM human thrombin or human factor Xa; purchased Enzyme Research Laboratories, South Bend, Ind
T2 sequence (P00742 235-488 limits assumed): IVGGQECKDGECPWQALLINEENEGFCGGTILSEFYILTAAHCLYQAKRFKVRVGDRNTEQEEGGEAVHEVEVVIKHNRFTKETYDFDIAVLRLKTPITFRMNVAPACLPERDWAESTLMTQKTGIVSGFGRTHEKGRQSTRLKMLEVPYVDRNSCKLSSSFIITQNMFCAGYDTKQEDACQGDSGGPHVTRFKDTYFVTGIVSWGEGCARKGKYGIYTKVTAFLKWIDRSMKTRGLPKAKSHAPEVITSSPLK
T2 sequence (P00742 41-179 limits assumed): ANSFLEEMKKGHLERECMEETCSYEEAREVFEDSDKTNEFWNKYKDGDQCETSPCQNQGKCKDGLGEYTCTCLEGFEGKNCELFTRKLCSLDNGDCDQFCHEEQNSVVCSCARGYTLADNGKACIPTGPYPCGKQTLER
Experimental: (§1) The effectiveness of compounds of the present invention as inhibitors of blood coagulation proteases was determined using purified human proteases and synthetic substrates following procedures similar to those described in Kettner et al. (1990).
(§2) For these assays, the rate of enzymatic (thrombin, Factor Xa, and Factor VIIa) hydrolysis of chromogenic substrates (S2238 (H-D-Phe-Pip-Arg-pNA), S2222, and S2288, respectively; Kabi Pharmacia, Franklin, Ohio) was measured both in the absence and presence of compounds of the present invention. […] A decrease in the rate of absorbance change at 405 nm in the presence of inhibitor is indicative of enzyme inhibition. The results of this assay are expressed as inhibitory constant, Ki.
(§3) Thrombin and Xa determinations were made in 0.10M sodium phosphate buffer, pH 7.5, containing 0.20M NaCl, and 0.5% PEG 8000. VIIa determinations were made in 0.05M tris buffer, pH 7.6, containing 0.10M NaCl, 4 mM CaCl2, and 0.1% bovine serum albumin.
(§4) Reactions were allowed to go for 30 minutes and the velocities (rate of absorbance change vs time) were measured in the time frame of 25-30 minutes. The following relationship was used to calculate Ki values. [formula] where: vo is the velocity of the control in the absence of inhibitor;
(§5) vs is the velocity in the presence of inhibitor;
(§6) I is the concentration of inhibitor;
(§7) Ki is the dissociation constant of the enzyme: inhibitor complex;
(§8) S is the concentration of substrate;
(§9) Km is the Michaelis constant.

[3] = biological target: T3, human factor VIIa (Homo sapiens, UniProt P08709); assay: Inhibition of Factor VIIa hydrolysis of chromogenic substrate S2288 (Ki); format: biochemical; conditions: S2288, pH 7.6
T3 construct: 50 nM human factor VIIa (BiosPacific, Emeryville, Calif.); purchased BiosPacific, Emeryville, Calif
T3 sequence (P08709 213-466 limits assumed): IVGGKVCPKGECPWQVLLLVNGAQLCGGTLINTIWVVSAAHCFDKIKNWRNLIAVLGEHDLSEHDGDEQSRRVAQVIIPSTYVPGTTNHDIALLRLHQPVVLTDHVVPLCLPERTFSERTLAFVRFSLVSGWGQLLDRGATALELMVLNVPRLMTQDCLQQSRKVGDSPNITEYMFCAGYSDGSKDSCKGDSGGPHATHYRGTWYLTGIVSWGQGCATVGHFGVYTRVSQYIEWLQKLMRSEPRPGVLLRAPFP
T3 sequence (P08709 61-212 limits assumed): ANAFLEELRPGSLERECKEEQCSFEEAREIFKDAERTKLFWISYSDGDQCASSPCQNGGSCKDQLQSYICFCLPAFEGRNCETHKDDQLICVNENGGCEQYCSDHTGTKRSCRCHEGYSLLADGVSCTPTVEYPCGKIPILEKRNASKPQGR
Experimental: as §1, §2, §3, §4, §5, §6, §7, §8, §9

[4] = test system: thrombin clotting times; assay: Thrombin clotting time, concentration for 2-fold increase; format: biochemical; conditions: 2-fold increase of thrombin clotting time
[5] = test system: thrombin clotting times; assay: Anticoagulant effect in vivo: identical model, activity measured by increases in thrombin clotting times; parameters: species or system conscious dogs or anesthetized rats; conditions: oral administration
[6] = biological target: chymotrypsin (Bos taurus, UniProt P00766); conditions: Matteson et al. J. Am. Chem. Soc. 103: 5241 (1981); cited from earlier work

Compound | Ki [1] [nM] | Ki [2] [nM] | Ki [3] [nM] | concentration that increased thrombin clotting times 2-fold [4] [µM] | elevation in anticoagulant activity measured by increases in thrombin clotting times [5] [fold] | Ki [6] [nM]
Boc--(D)Phe--Pro--boroOrn(CH=NH)]--OH.0.6 HCl.0.4 BSA [Example 7] | < 500 | < 500 | < 500 | < 0.075 |  | 
CC(=O)NC(Cc1ccccc1)C(=O)N1CCCC1C(=O)NC(Cc1cccc(C#N)c1)B1OC2CC3CC(C3(C)C)C2(C)O1 (stereo not shown) [Example 11, Ac--(D)Phe--Pro--boroPhe--(m-CN)--C10 H16] | < 500 | < 50000 | < 500 | 0.60 |  | 
Ac--(D)Phe--Pro--boroArg(CH3)--OH.HCl [Example 54] | < 500 |  |  |  | ≥ 2 | 
Ms--(D)Thiazolylalanine-Pro--boroPhe(m-CN)--C10 H16 [Example 31] | < 500 | < 500 |  |  | ≥ 2 | 
H--(D)Phe--Pro--boroOrn(CH=NH)]--OH.0.65 HCl.0.35 BSA [Example 9] | < 500 |  |  | 0.10 |  | 
CC(=O)N[C@@H](Cc1ccccc1)B(O)O [Ac-boroPhe--OH, R-1-acetamido-2-phenylethane boronic acid] |  |  |  |  |  | 4000
